According to patent publication US20160015770A1, “COMPOSITIONS FOR TREATMENT OF RETINAL DETACHMENT” (THE REGENTS OF THE UNIVERSITY OF MICHIGAN, priority 2013, published 2016):
Non-standard residues stand in square brackets, D forms with d. Residues, ends and D or L forms follow the SMILES beside them. *: point of attachment. Nle = CCCC[C@H](N)C(=O)O; Cbz = O=C(OCc1ccccc1)*

Columns and labels:
detached retina [1] = assay: Experimental retinal detachment, western blot of autophagy markers (Atg5, Atg5-12, LC3-II) in retina; type: in vivo; conditions: rat, 50 μg subretinal at time of detachment, 7 days, vs detachments alone
Experimental: All experiments were performed in accordance with the ARVO Statement for the Use of Animals in Ophthalmic and Vision Research and the guidelines established by the University Committee on Use and Care of Animals of the University of Michigan. Detachments were created in adult male Brown-Norway rats (300-400 g; Charles River Laboratories, Wilmington, Mass.) as described previously. Briefly, rodents were anesthetized with a 50:50 mix of ketamine/xylazine, and pupils were dilated with topical phenylephrine (2.5%) and tropicamide (1%). A 20-gauge microvitreoretinal blade was used to create a sclerotomy 2 mm posterior to the limbus, carefully avoiding lens damage. A subretinal injector (Glaser, 32-gauge tip; BD Ophthalmic Systems, Franklin Lakes, N.J.) was introduced through the sclerotomy into the vitreous cavity and then through a peripheral retinotomy into the subretinal space. Sodium hyaluronate (10 mg/mL, Healon OVD; Abbott Medical Optics, Uppsala, Sweden) was slowly injected to detach the neurosensory retina from the underlying RPE. In all experiments, approximately one third to one half of the neurosensory retina was detached. Detachments were created in the left eye. The right eye served as the control, with all the steps of the procedure performed except for introduction of the subretinal injector and injection of the sodium hyaluronate. […]
Retinas from experimental eyes with detachment (detached portion of retina only) and control eyes without detachment were dissected from the RPE-choroid, homogenized, and lysed in buffer containing 10 mM HEPES (pH 7.6), 0.5% IgEPal, 42 mM KCl, 1 mM phenylmethylsulfonyl fluoride, 1 mM EDTA, 1 mM EGTA, 1 mM dithiothreitol, 5 mM MgCl2, and one tablet of protease inhibitors per 10 mL buffer (Complete Mini; Roche Diagnostics GmbH, Madison, Wis.). […] The protein concentration of the supernatant was then determined (DC Protein Assay kit; Bio-Rad Laboratories, Hercules, Calif.). The protein samples were separated on SDS-polyacrylamide gels (Tris-HCl Ready Gels; Bio-Rad Laboratories). […]

detached retina [2] = conditions: 7 days, compared to untreated detached retinas, prior work (ref 12); cited from earlier work
calpain 1 = target: T1, calpain 1 (Mus musculus, UniProt O35350); assay: Western blot of calpain 1 specific cleaved alpha-spectrin in 661W cells treated with Fas activating antibody; type: cell-based; conditions: 24 hours, inhibitor added 1 hour before Fas activating antibody, compared to Fas activation alone
T1 construct: endogenous in cells; host or cells: 661W mouse photoreceptor cell line
T1 sequence (O35350 1-713): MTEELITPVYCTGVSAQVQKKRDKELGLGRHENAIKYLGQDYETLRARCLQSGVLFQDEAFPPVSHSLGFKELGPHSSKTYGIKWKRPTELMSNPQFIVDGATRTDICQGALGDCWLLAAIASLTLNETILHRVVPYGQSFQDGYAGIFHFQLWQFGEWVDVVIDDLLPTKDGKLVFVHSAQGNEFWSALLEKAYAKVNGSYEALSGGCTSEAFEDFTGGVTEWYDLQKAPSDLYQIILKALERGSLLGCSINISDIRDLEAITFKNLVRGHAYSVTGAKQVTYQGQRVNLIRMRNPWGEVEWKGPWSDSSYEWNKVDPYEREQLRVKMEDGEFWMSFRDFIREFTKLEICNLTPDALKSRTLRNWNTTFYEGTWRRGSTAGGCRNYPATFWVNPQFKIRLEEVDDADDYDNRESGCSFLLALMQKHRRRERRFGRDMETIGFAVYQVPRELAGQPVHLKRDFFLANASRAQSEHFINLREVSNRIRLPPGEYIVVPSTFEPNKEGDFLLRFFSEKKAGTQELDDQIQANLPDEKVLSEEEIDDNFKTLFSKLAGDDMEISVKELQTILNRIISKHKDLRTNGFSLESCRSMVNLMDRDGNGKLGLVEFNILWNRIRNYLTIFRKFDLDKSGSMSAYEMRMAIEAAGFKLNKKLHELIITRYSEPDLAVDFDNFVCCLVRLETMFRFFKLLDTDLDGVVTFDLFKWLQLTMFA
T1 sequence (O88456 1-268 partner): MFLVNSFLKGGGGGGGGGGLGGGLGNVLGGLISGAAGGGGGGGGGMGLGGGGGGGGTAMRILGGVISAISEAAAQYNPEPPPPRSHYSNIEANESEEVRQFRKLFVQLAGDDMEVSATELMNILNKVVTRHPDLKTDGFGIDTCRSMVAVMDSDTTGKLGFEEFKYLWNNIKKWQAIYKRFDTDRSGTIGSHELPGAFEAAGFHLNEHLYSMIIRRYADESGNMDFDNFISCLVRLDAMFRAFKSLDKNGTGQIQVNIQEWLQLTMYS
Experimental: The 661W photoreceptor cell line was generously provided by Dr. Muayyad Al-Ubaidi (Department of Cell Biology, University of Oklahoma Health Sciences Center, Oklahoma City, Okla.). The 661W cell line was maintained in Dulbecco's modified Eagle's medium containing 10% fetal bovine serum, 300 mg/L glutamine, 32 mg/L putrescine, 40 μL/L β-mercaptoethanol, and 40 μg/L of both hydrocortisone 21-hemisuccinate and progesterone. The media also contained penicillin (90 units/mL) and streptomycin (0.09 mg/mL). Cells were grown at 37° C. in a humidified atmosphere of 5% CO2 and 95% air.
Retinas from experimental eyes with detachment (detached portion of retina only) and control eyes without detachment were dissected from the RPE-choroid, homogenized, and lysed in buffer containing 10 mM HEPES (pH 7.6), 0.5% IgEPal, 42 mM KCl, 1 mM phenylmethylsulfonyl fluoride, 1 mM EDTA, 1 mM EGTA, 1 mM dithiothreitol, 5 mM MgCl2, and one tablet of protease inhibitors per 10 mL buffer (Complete Mini; Roche Diagnostics GmbH, Madison, Wis.). 661W cells were plated at 150,000 cells per well in six-well culture dishes in growth media. After 24 hours, the cells were washed one time with warmed PBS solution and then placed in growth media without fetal bovine serum. Depending on experimental conditions, 500 ng/mL Fas activating antibody (BD Biosciences, San Jose, Calif.) and various calpain inhibitors including MDG-28170 (Sigma, St. Louis, Mo.), MG-101 (Sigma, St. Louis, Mo.), calpeptin (Santa Cruz Biotechnology, Santa Cruz, Calif.) or equal volume of DMSO was added. Calpain inhibitors were added 1 hour prior to the addition of Fas activating antibody. The cells were incubated for various lengths of time and then lysed and homogenized in lysis buffer. The homogenates were incubated on ice and centrifuged at 22,000 g at 4° C. for 60 minutes. The protein concentration of the supernatant was then determined (DC Protein Assay kit; Bio-Rad Laboratories, Hercules, Calif.). The protein samples were separated on SDS-polyacrylamide gels (Tris-HCl Ready Gels; Bio-Rad Laboratories). After electrophoretic separation, the proteins were transferred onto polyvinylidene fluoride membranes (Immobilon-P; Millipore, Billerica, Mass.). Membranes were then immunoblotted with antibodies according to the manufacturer's instructions. The following antibodies were used: LC3b (Cell Signaling, Beverly, Mass.), Atg5 (Abgent, San Diego, Calif.), Atg12 (Cell Signaling, Beverly, Mass.), calpain 1 (Cell Signaling, Beverly, Mass.), alpha-spectrin (Santa Cruz Biotechnology, Santa Cruz, Calif.), actin (Sigma, St. Louis, Mo.), and GAPDH (Abcam, Cambridge, Mass.).
After determining calpain 1 levels, it was looked to correlate this with calpain activity. […]

Row | Structure (SMILES) | Atg5-12 levels in retina (detached retina [1]) | Atg5-12 levels in retina (detached retina [1]; listed as Baf-a) | LC3-II level in retina (detached retina [2]) | cleaved alpha-spectrin levels (calpain 1)
1 | CO/C1=C\C(C)=C\[C@@H](C)[C@@H](O)[C@@H](C)C/C(C)=C/C=C/[C@H](OC)[C@@H]([C@@H](C)[C@@H](O)[C@H](C)[C@@]2(O)C[C@@H](O)[C@H](C)[C@@H](C(C)C)O2)OC1=O [Bafilomycin-a] | did not appear to be any increase | no significant difference | remain elevated | 
2 | CC(C)[C@H](NC(=O)OCc1ccccc1)C(=O)N[C@H](C=O)Cc1ccccc1 [MDG-28170] (Cbz-Val-Phe-aldehyde) |  |  |  | decreased
3 | CCCC[C@@H](C=O)NC(=O)[C@H](CC(C)C)NC(=O)[C@H](CC(C)C)NC(C)=O [MG-101] (Ac-Leu-Leu-[Nle]-aldehyde) |  |  |  | decreased
